The values below come from patent US20110124634A1, “BIOACTIVE COMPOUNDS FOR TREATMENT OF CANCER AND NEURODEGENERATIVE DISEASES” (PONIARD PHARMACEUTICALS, INC., priority 2008, published 2011).

Format in all cases: cell-based
The subject of assay [1] is HSP90 client protein Her2 in SKBR-3 cells. Kind of assay: Her-2 degradation assay (Her-2 ELISA) in SKBr-3 cells. Particulars: Homo sapiens, SK-BR-3, Table 5, series III, 18 hours. As for the experimental part:
Most of the compounds synthesized were evaluated for their ability to induce degradation of the HSP90 client protein Her2 in SKBR-3 cells. Selected compounds were evaluated in a fluorescence polarization (FP) assay for their affinity to HSP90.
SKBr-3 cells grown in McCoy's 5a Medium supplemented with 10% fetal bovine serum (FBS) were plated into 12-well plates at 50% confluency. Increasing concentrations of inhibitors were added 24 hours later (cells are 65-70% confluent) and incubated overnight for 18 hours. The wells were washed with 2 ml of phosphate buffered saline (PBS), and 50 ul of trypsin was added to each well. After trypsinization was complete, 150 ul of FBS was added to each well. Then 200 ul of cells were transferred to 96-well plates and plates were centrifuged at 1200 rpm for 2 minutes using a tabletop centrifuge. The cells were washed once with 250 ul PBS before being lysed with 100 ul of 50 mM Tris (pH 7.4), 0.1% NP-40 lysis buffer. Protein concentrations of clarified lysates were determined using the BCA Assay (Calbiochem) according to the manufacturer's instructions. 2 ug of each lysate was analyzed in the human sp 185 Her-2 ELISA (Bender Medsystems) according to the manufacturer's instructions. ELISA plates were read at 450 nm using a multiwell plate spectrophotometer. Background was determined by measuring the Abs 450 nm of wells with no lysate added. The background value was subtracted from all values. Absorbance 450 nm values for each inhibitor were plotted against the log 10 inhibitor concentration, and IC50 values were calculated using a nonlinear least-square curve fitting program in Prism 5.
In general terms: An ELISA detects its analyte on a solid surface through an enzyme-linked reagent.

In another assay the test system is MCF-7. Description: MTS assay (cytotoxicity), growth inhibition of MCF-7. The conditions noted are these: Homo sapiens, MCF7, 120 h, Table 5, series III, 5 days, read-out: Growth Inhibition (IC50) MCF-7. As for the experimental part: (§1) Cells were seeded in 96-well plates at 2000 cells/well in a final culture volume of 100 ul for 24 hours before the addition of 25 ul of increasing concentrations of inhibitors that was incubated for 5 days. Viable cell number was determined using the CellTiter 96 AQueous One Solution Cell Proliferation Assay (Promega). Plates were read at 490 nm absorbance 2-4 hours after addition of the MTS reagent using a multiwell plate spectrophotometer. Background was determined by measuring the Abs 490 nm of cell culture medium and MTS in the absence of cells. The background value was subtracted from all values. Absorbance 490 nm values for each inhibitor were plotted against the log 10 inhibitor concentration, and IC50 values were calculated using a nonlinear least-square curve fitting program in Prism 5.
Background: Formazan colour is commonly taken as a measure of viable cells.

For the next assay, the system named is HT29. Description: MTS assay (cytotoxicity), growth inhibition of HT29. The conditions noted are these: Homo sapiens, HT-29, 120 h, Table 5, series III, 5 days, read-out: Growth Inhibition (IC50) HT29. As for the experimental part:
as §1

Another assay relates to SKBR-3. Description: MTS assay (cytotoxicity), growth inhibition of SKBR-3. The conditions noted are these: Homo sapiens, SK-BR-3, 120 h, Table 5, series III, 5 days, read-out: Growth Inhibition (IC50) SKBR-3. As for the experimental part: as §1
The test system of the next assay is BT474. Description: MTS assay (cytotoxicity), growth inhibition of BT474. Particulars: Homo sapiens, BT-474, 120 h, Table 5, series III, 5 days, read-out: Growth Inhibition (IC50) BT474. As for the experimental part:
as §1

Where only a bound is given, the exact number is not on record here.

With `COc1c(C)cnc(CN2C(=O)/C(=C\c3ccc[nH]3)c3c(Cl)nc(N)nc32)c1C` [III-1, 2-Amino-4-chloro-7-(4-methoxy-3,5-dimethyl-pyridin-2-ylmethyl)-5-[1-(1H-pyrrol-2-yl)-meth-(Z)-ylidene]-5,7-dihydro-pyrrolo[2,3-d]pyrimidin-6-one], the half-inhibitory concentration (IC50) (commonly the midpoint of a concentration-inhibition curve) in assay [1] came out at 90 nM; in the assay with MCF-7, 90 nM; in the assay on HT29, 30 nM; in the assay on SKBR-3 it was 90 nM; with BT474, 30 nM.
As for `COc1c(C)cnc(CN2C(=O)/C(=C\c3[nH]c(C)cc3C)c3c(Cl)nc(N)nc32)c1C` [III-2, 2-Amino-4-chloro-5-[1-(3,5-dimethyl-1H-pyrrol-2-yl)-meth-(Z)-ylidene]-7-(4-methoxy-3,5-dimethyl-pyridin-2-ylmethyl)-5,7-dihydro-pyrrolo[2,3-d]pyrimidin-6-one], the IC50 in assay [1] is 1670 nM; in the assay on MCF-7, 3650 nM; with HT29 it was 1210 nM; in the assay with SKBR-3 it was 960 nM; in the assay with BT474 it was 1020 nM.
The corresponding values for `COc1c(C)cnc(CN2C(=O)/C(=C\c3ncc[nH]3)c3c(Cl)nc(N)nc32)c1C` [III-3, 2-Amino-4-chloro-5-[1-(1H-imidazol-2-yl)-meth-(Z)-ylidene]-7-(4-methoxy-3,5-dimethyl-pyridin-2-ylmethyl)-5,7-dihydro-pyrrolo[2,3-d]pyrimidin-6-one] are 90 nM, 100 nM, 70 nM, 40 nM and 60 nM.
The corresponding values for `COc1c(C)cnc(CN2C(=O)/C(=C\c3[nH]cnc3C)c3c(Cl)nc(N)nc32)c1C` [III-4, 2-Amino-4-chloro-7-(4-methoxy-3,5-dimethyl-pyridin-2-ylmethyl)-5-[1-(5-methyl-3H-imidazol-4-yl)-meth-(Z)-ylidene]-5,7-dihydro-pyrrolo[2,3-d]pyrimidin-6-one] are 340 nM, 530 nM, 120 nM, 160 nM and 190 nM.
The corresponding values for `COC(=O)c1ccc(/C=C2\C(=O)N(Cc3ncc(C)c(OC)c3C)c3nc(N)nc(Cl)c32)[nH]1` [III-5, 5-[2-Amino-4-chloro-7-(4-methoxy-3,5-dimethyl-pyridin-2-ylmethyl)-6-oxo-6,7-dihydro-pyrrolo[2,3-d]pyrimidin-(5Z)-ylidenemethyl]-1H-pyrrole-2-carboxylic acid methyl ester] are 480 nM, 960 nM, 560 nM, 230 nM and 210 nM.
In the case of `COc1c(C)cnc(CN2C(=O)/C(=C\c3cc4c([nH]3)CCC=C4Cl)c3c(Cl)nc(N)nc32)c1C` [III-7, 2-Amino-4-chloro-5-[1-(4-chloro-6,7-dihydro-1H-indol-2-yl)-meth-(Z)-ylidene]-7-(4-methoxy-3,5-dimethyl-pyridin-2-ylmethyl)-5,7-dihydro-pyrrolo[2,3-d]pyrimidin-6-one], the 50% inhibitory concentration (IC50) is 6570 nM in assay [1]; 5430 nM with MCF-7; 2010 nM in the assay on HT29; 5750 nM with SKBR-3; 4710 nM in the assay with BT474.
The corresponding values for `COc1c(C)cnc(CN2C(=O)/C(=C\c3ccc(C(=O)C(F)(F)F)[nH]3)c3c(Cl)nc(N)nc32)c1C` [III-8, 2-Amino-4-chloro-7-(4-methoxy-3,5-dimethyl-pyridin-2-ylmethyl)-5-[1-[5-(2,2,2-trifluoro-acetyl)-1H-pyrrol-2-yl]-meth-(Z)-ylidene]-5,7-dihydro-pyrrolo[2,3-d]pyrimidin-6-one] are 150 nM, 810 nM, 1310 nM, 150 nM and 470 nM.
The corresponding values for `COc1c(C)cnc(CN2C(=O)/C(=C\c3[nH]ncc3Br)c3c(Cl)nc(N)nc32)c1C` [III-10, (Z)-2-Amino-5-((4-bromo-1H-pyrazol-5-yl)methylene)-4-chloro-7-((4-methoxy-3,5-dimethylpyridin-2-yl)methyl)-5H-pyrrolo[2,3-d]pyrimidin-6(7H)-one] are 280 nM, 1270 nM, 480 nM, 170 nM and 320 nM.
For `COc1c(C)cnc(CN2C(=O)/C(=C\c3cc(Br)c[nH]3)c3c(Cl)nc(N)nc32)c1C` [III-11, (Z)-2-Amino-5-((4-bromo-1H-pyrrol-2-yl)methylene)-4-chloro-7-((4-methoxy-3,5-dimethylpyridin-2-yl)methyl)-5H-pyrrolo[2,3-d]pyrimidin-6(7H)-one] the same measures were 190 nM, 1380 nM, 380 nM, 140 nM and 430 nM.
In the case of `COc1c(C)cnc(CN2C(=O)/C(=C\c3cc(C(=O)NCCN4CCOCC4)c[nH]3)c3c(Cl)nc(N)nc32)c1C` [III-16, (Z)-5-((2-Amino-4-chloro-7-((4-methoxy-3,5-dimethylpyridin-2-yl)methyl)-6-oxo-6,7-dihydro-5H-pyrrolo[2,3-d]pyrimidin-5-ylidene)methyl)-N-(2-morpholinoethyl)-1H-pyrrole-3-carboxamide], the half-maximal inhibitory concentration (IC50) in assay [1] was 30 nM; with MCF-7, 100 nM; with HT29, 50 nM; with SKBR-3, 20 nM; in the assay with BT474, 10 nM.
As to `COc1c(C)cnc(CN2C(=O)/C(=C\c3cc(C(=O)NCCO)c[nH]3)c3c(Cl)nc(N)nc32)c1C` [III-18, (Z)-5-((2-Amino-4-chloro-7-((4-methoxy-3,5-dimethylpyridin-2-yl)methyl)-6-oxo-6,7-dihydro-5H-pyrrolo[2,3-d]pyrimidin-5-ylidene)methyl)-N-(2-hydroxyethyl)-1H-pyrrole-3-carboxamide], the IC50 in assay [1] was 360 nM; in the assay with MCF-7, above 500 nM; with HT29, 110 nM; with SKBR-3, 30 nM; with BT474, 30 nM.
Consider `CCN(CC)CCNC(=O)c1c[nH]c(/C=C2\C(=O)N(Cc3ncc(C)c(OC)c3C)c3nc(N)nc(Cl)c32)c1` [III-19, (Z)-5-((2-Amino-4-chloro-7-((4-methoxy-3,5-dimethylpyridin-2-yl)methyl)-6-oxo-6,7-dihydro-5H-pyrrolo[2,3-d]pyrimidin-5-ylidene)methyl)-N-(2-(diethylamino)ethyl)-1H-pyrrole-3-carboxamide], for which the concentration for half-maximal inhibition (IC50) in assay [1] was 10 nM; in the assay with MCF-7, 70 nM; in the assay with HT29, 10 nM; in the assay on SKBR-3 it was 1 nM; in the assay with BT474, 0.7 nM.
As for `COc1c(C)cnc(CN2C(=O)/C(=C\c3cc(C(=O)NCCNC(C)C)c[nH]3)c3c(Cl)nc(N)nc32)c1C` [III-21, (Z)-5-((2-Amino-4-chloro-7-((4-methoxy-3,5-dimethylpyridin-2-yl)methyl)-6-oxo-6,7-dihydro-5H-pyrrolo[2,3-d]pyrimidin-5-ylidene)methyl)-N-(2-(isopropylamino)ethyl)-1H-pyrrole-3-carboxamide], the concentration for half-maximal inhibition (IC50) was determined as 60 nM in assay [1]; 150 nM in the assay on MCF-7; 60 nM with HT29; 4 nM in the assay on SKBR-3; 10 nM in the assay on BT474.
